Source: patent US11492325B2, “Compounds as inhibitors of sodium channels” (Human BioMolecular Research Institute, priority 2016, dated 2022)
Read-outs that look alike come from different tables or passages of the source.

Assays:
[1] = Metabolism in human hepatic S9; settings: for % Metabolism Human S9: 0.5 mg of protein; for Human S-9, nmol metab./incub.: 0.4 mg protein/incubation, 30 mins, 37° C.
Procedure: (§1) A typical incubation contained rat, mouse, dog or human liver microsomes (0.4-0.5 mg of protein), 100 mM potassium phosphate buffer (pH7.4), 50 μM test compound, an NADPH-generating system consisting of 0.5 mM NADP^+, 0.5 mM glucose-6-phosphate, 1 IU/mL glucose-6-phosphate dehydrogenase, 1 mg/mL diethylenetriaminepentaaceticacid (DETAPAC), and 3 mM MgCl2 in a final incubation volume of 0.25 mL. […] After centrifugation at 3000 rpm for 5 min, the organic fraction was collected, the solvent was removed with a stream of argon and the residue was reconstituted in 125 μL of MeOH and 125 μL H2O, mixed thoroughly, centrifuged at 13,000 rpm for 5 min and analyzed by high performance liquid chromatography. Samples were run on a Hitachi D-7000 HPLC system using a L-7100 analytical pump, L-7400 UV-Visible variable wavelength detector, and L-7600 automatic sample injector. […] Disappearance of the analyte was monitored over time. A plot of the area under the curve for the normalized analyte versus time afforded the half-life values and kapp.
(§2) Microsomes contain CYPs and FMO metabolic enzymes. S9 contains soluble enzymes (i.e., aldehyde oxidase, MAO, etc.).

[2] = Metabolism in rat hepatic S9; assay type: in vitro ADME; settings: 0.5 mg of protein
Procedure: as §1, §2

[3] = Metabolism in dog hepatic S9; assay type: in vitro ADME; settings: 0.5 mg of protein
Procedure: as §1, §2

[4] = Metabolism in mouse hepatic S9; settings: for % Metabolism Mouse S9: 0.5 mg of protein; for Mouse S-9, nmol metab./incub.: 0.4 mg protein/incubation, 30 mins, 37° C.
Procedure: as §1, §2

[5] = target: Nav1.5 sodium channel transfected into HEK293 cells (Homo sapiens, UniProt Q14524); assay: in vitro
Procedure, shortened: (§3)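 Conventional whole-cell patch clamp was performed on HEK293 cells transfected with Nav1.5 and plated on 0.1% gelatin-coated dishes. Values were reported as IC50 ± STD.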

[6] = target: Nav1.5 sodium channel, peak current (INaP) (Homo sapiens, UniProt Q14524, form not given); assay: in vitro; settings: Peak Na+ (INaP) IC50
Procedure, shortened: as §3

[7] = tested on: cardiomyocytes derived from hiPSCs from a LQTS3 patient; settings: for LQT-Cess. Dose: deuterated vs non-deuterated; for action potential shortening compared to unlabeled compound: deuterium-labeled analogs
[8] = tested on: cardiomyocytes derived from hiPSCs from a LQTS3 patient; assay: cells; settings: Homo sapiens, Cardiomyocyte, read-out: LQT-IC50 (uM)-Shortening
[9] = target: T1, hERG potassium channel (IKr) (Homo sapiens, UniProt Q12809); assay: Automated patch clamp, hERG (IKr) expressed in CHO cells; settings: hERG (IKr) IC50, CHO cells
T1 sequence (Q12809 whole entry): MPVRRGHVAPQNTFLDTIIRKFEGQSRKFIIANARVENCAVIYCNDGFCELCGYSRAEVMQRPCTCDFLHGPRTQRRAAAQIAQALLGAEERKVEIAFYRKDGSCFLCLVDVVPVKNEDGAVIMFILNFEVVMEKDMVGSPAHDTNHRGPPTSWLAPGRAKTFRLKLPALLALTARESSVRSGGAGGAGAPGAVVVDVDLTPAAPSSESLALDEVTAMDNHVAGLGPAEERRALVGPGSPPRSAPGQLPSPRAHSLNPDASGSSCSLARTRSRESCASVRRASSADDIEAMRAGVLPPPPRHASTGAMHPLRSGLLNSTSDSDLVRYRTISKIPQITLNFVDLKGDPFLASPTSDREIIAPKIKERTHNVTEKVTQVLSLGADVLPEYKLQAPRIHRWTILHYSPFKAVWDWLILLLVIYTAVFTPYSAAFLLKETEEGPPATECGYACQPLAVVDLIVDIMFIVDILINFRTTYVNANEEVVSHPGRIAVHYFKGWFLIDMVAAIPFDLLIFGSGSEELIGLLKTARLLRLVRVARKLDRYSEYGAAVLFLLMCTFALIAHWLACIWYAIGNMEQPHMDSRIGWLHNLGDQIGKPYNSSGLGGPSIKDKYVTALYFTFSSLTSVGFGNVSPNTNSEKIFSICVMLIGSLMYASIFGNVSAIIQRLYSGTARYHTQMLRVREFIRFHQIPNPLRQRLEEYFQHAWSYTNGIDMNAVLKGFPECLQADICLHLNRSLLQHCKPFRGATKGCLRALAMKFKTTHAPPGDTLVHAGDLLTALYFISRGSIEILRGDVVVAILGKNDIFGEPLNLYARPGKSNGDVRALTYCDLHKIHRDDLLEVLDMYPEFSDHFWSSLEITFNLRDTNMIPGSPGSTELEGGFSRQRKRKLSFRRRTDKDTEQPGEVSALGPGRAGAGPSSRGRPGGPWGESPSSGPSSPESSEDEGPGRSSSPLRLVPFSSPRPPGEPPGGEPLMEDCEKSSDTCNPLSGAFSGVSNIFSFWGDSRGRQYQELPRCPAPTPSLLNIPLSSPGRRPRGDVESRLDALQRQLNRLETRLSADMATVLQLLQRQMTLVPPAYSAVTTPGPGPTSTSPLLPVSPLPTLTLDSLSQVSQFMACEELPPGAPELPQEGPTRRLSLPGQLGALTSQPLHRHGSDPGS

Male BALBc mice = settings: mice, i.p.; for tolerability: 30-100 mg/kg, 24 hr
From the text: Male BALBc mice (20-22 g) were used throughout these studies. The animals were maintained in a temperature-controlled room with 12-hr periods of light and darkness and had continuous access to water and animal food. […] Groups contained 2-4 animals.

[10] = target: T1, hERG potassium channel (IKr)
[11] = tested on: normal human induced pluripotent stem cell (hiPSC) cardiomyocyte; settings: for WT-Fold Prolongation: APD; for WT-Prolong. Dose: 'No AP' wraps to 'No AP Prolong.'; for WT-Cess. Dose / WT-EC50 (μM)-Prolong.: deuterated vs non-deuterated; for WT-EC50 (μM)-Prolong.: 'No AP' wraps to 'No AP prolongation'
[12] = Solubility (water; 10:30:60% DMSO:PEG400:water vehicle); assay type: physicochemical
CYP3A4 = CYP3A4 (Homo sapiens, UniProt P08684); assay: Metabolism with highly purified CYP3A4 (HPLC); settings: 3 pmol enzyme/incubation, 30 mins, 37° C.; for Human CYP3A4 (nmol/incub): nmol metabolism/incubation
Chain of CYP3A4 (P08684 whole entry): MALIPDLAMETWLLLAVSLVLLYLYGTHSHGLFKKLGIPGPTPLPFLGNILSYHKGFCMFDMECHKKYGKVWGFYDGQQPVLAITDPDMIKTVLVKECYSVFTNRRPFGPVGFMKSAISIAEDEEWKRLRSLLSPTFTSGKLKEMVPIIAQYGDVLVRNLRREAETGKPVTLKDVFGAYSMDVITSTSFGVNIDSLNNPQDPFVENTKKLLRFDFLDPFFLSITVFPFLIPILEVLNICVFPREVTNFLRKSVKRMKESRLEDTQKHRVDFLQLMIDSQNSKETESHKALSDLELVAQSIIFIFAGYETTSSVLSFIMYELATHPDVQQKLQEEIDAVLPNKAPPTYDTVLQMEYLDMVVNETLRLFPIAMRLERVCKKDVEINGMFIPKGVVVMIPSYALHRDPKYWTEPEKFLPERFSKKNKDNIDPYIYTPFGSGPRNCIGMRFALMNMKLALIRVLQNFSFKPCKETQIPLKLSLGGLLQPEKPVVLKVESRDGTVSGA

Human FMO1 = target: T2, Human FMO1 (Homo sapiens, UniProt Q01740); assay: Metabolism with human FMO1 (nmol metabolism/incubation); settings: 15 μg enzyme/incubation, 30 mins, 37° C.; for Human FMO1 (nmol/incub): nmol metabolism/incubation
T2 sequence (Q01740 1-532): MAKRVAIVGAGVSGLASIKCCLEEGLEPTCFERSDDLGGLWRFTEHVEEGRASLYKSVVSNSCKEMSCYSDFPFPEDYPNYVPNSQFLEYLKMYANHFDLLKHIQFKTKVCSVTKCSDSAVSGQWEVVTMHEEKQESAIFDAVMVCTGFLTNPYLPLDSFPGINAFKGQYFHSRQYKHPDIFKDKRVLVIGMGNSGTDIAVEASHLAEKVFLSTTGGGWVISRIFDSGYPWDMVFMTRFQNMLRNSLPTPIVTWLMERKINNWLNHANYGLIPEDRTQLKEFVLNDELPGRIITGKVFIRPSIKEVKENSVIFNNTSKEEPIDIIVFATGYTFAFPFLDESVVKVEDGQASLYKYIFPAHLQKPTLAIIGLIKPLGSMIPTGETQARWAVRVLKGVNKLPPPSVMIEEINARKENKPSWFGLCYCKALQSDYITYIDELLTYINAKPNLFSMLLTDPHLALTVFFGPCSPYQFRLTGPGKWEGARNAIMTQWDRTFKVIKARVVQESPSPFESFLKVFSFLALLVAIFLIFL

[13] = Metabolic stability in mouse liver microsomes; assay type: in vitro ADME; settings: mouse, liver microsomes, pH 7.4; 50 μM, NADPH-generating system, 37° C.; read-out: Liver Microsomes t1/2 Mouse
Procedure: as §1

[14] = Metabolic stability in rat liver microsomes; assay type: in vitro ADME; settings: rat, liver microsomes, pH 7.4; 50 μM, NADPH-generating system, 37° C.; read-out: Liver Microsomes t1/2 Rat
Procedure: as §1

[15] = Metabolic stability in human liver microsomes; assay type: in vitro ADME; settings: human, liver microsomes, pH 7.4, 50 μM, NADPH-generating system, 37° C.; read-out: Liver Microsomes t1/2 Human
Procedure: as §1

Human FMO3 = Human FMO3 (Homo sapiens, UniProt P31513); settings: 15 μg enzyme/incubation; 30 mins, 37° C.; nmol metabolism/incubation
Chain of Human FMO3 (P31513 whole entry): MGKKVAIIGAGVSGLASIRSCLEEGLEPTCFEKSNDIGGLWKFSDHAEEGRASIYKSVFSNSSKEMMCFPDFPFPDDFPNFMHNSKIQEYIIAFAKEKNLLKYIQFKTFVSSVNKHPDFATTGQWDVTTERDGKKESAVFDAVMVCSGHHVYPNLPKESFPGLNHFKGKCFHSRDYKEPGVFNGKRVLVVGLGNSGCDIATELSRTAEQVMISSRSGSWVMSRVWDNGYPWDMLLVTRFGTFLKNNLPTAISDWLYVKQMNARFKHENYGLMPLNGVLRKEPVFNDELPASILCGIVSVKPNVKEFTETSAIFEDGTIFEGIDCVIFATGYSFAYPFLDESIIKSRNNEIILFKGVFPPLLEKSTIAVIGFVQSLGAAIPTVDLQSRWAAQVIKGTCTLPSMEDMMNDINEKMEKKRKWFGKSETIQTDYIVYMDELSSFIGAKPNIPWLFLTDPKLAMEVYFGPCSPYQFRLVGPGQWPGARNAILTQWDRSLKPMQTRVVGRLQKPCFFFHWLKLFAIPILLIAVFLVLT

[16] = ratio peak/late IC50, Example 2
[17] = 'No AP' wraps to 'No AP shortening'

Cc1cc(C)cc(OCC(N)c2ccccc2)c1 (stereo not drawn) [drawing 306]
% Metabolism Human S9 [1]: 39.2 ± 8.4% | % Metabolism Rat S9 [2]: 45.0 ± 14.5% | % Metabolism Dog S9 [3]: 35.8 ± 7.0% | % Metabolism Mouse S9 [4]: 13.6 ± 5.0%

Cc1ccncc1OCC(N)c1ccccc1.Cl (stereo not drawn) [Compound 88]
IC50 [5]: 1.04 µM | DNap/NaL [5, 16]: 87.4 | IC50 [6]: 90.9 µM | LQT-Cessation Dose [7]: None | LQT-Fold Shortening ([7]; LQT3 cardiomyocytes): 1.287 | IC50 [8]: 12.8 µM | IC50 ([9]; Example 2): 11.2 µM | behavioral/toxic effects at 200 mg/kg (Male BALBc mice): slight lethargy | tolerability (Male BALBc mice): well-tolerated | DKr/NaL [10]: 10.7 | DNaP/Kr [10]: 7.7 | Cessation of Beating [11]: None | WT-Fold Prolongation ([11]; normal hiPSC cardiomyocytes): 1.52 | solubility (in words) [12]: good solubility

Cc1cccc(C)c1OCC(N)c1ccccc1 (racemic) [Phenyl Mexiletine]
Human S-9, nmol metab./incub. [1]: 1.2 nmol metab./incub. | Human CYP3A4, nmol metab./incub. (CYP3A4): 2.3 nmol metab./incub. | Human FMO1, nmol metab./incub. (Human FMO1): 0.33 nmol metab./incub. | Mouse S-9, nmol metab./incub. [4]: 2.5 nmol metab./incub.

Cc1ccccc1OCC(N)c1ccccc1 (stereo not drawn) [drawing 303]
half-life at 50 μM [13]: 3.47 h | half-life at 50 μM [14]: 7.92 h | half-life at 50 μM [15]: 2.35 h

COCCNC(COc1ccccc1C(F)(F)F)c1ccccc1.Cl (stereo not drawn) [Compound 105]
IC50 [5]: 1.14 µM | DNap/NaL [5, 16]: 38.9 | IC50 [6]: 44.3 µM | IC50 ([9]; Example 2): 20.9 µM | tolerability (Male BALBc mice): well-tolerated | DKr/NaL [10]: 18.3 | DNaP/Kr [10]: 2.11 | solubility (in words) [12]: good solubility

Cl.[2H]C(N)(COc1c(C)cccc1C)c1ccccc1 (stereo not drawn) [Compound 136]
Human S-9, nmol metab./incub. [1]: 1.4 nmol metab./incub. | Human CYP3A4, nmol metab./incub. (CYP3A4): 1.5 nmol metab./incub. | Human FMO1, nmol metab./incub. (Human FMO1): 0.06 nmol metab./incub. | Mouse S-9, nmol metab./incub. [4]: 1.4 nmol metab./incub.

Cl.[2H]C(N)(COc1cc(C(F)(F)F)cc(C(F)(F)F)c1)c1ccccc1 (stereo not drawn) [Compound 104a]
LQT-EC50 (μM)-Shortening [7, 17]: No AP | LQT-Fold Shortening [7, 17]: 1.274 | LQT-Shortening Dose [7, 17]: 22 µM | LQT-Cess. Dose [7]: 133 µM | action potential shortening compared to unlabeled compound [7]: equal to or greater action potential shortening | Human CYP3A4 (nmol/incub) (CYP3A4): 1.1 nmol/incub | Human FMO1 (nmol/incub) (Human FMO1): 0.8 nmol/incub | WT-Prolong. Dose [11]: No AP | WT-Cess. Dose [11]: 66 µM | WT-EC50 (μM)-Prolong. [11]: No AP | Human FMO3 (nmol/incub) (Human FMO3): 0.6 nmol/incub

Cl.[2H]C(N)(COc1cc(C)cc(C)c1)c1ccccc1 (stereo not drawn) [Compound 104b]
LQT-Fold Shortening [7, 17]: 1.280 | LQT-Shortening Dose [7, 17]: 2.5 µM | LQT-Cess. Dose [7]: 22 µM | action potential shortening compared to unlabeled compound [7]: equal to or greater action potential shortening | Human CYP3A4 (nmol/incub) (CYP3A4): 0.3 nmol/incub | Human FMO1 (nmol/incub) (Human FMO1): 1.0 nmol/incub | WT-Prolong. Dose [11]: No AP | WT-Cess. Dose [11]: 22 µM | WT-EC50 (μM)-Prolong. [11]: No AP | Human FMO3 (nmol/incub) (Human FMO3): 0.05 nmol/incub

NC(COc1ccccc1C(F)(F)F)c1ccccc1 (stereo not drawn) [drawing 308]
% Metabolism Human S9 [1]: 28.0 ± 7.4% | % Metabolism Rat S9 [2]: 15.4 ± 10.5% | % Metabolism Dog S9 [3]: 51.0 ± 19.1% | % Metabolism Mouse S9 [4]: 55.0 ± 22.4%

COCCNC(COc1cc(C)cc(C)c1)c1ccccc1.Cl (stereo not drawn) [Compound 69]
DNap/NaL ([5]; ratio peak IC50/late IC50): 45.3 | DNap/NaL [5, 16]: 50.5 | IC50 [6]: 38.3 µM | LQT-IC50 (uM)-Shortening ([7]; APD shortening, LQT3 cardiomyocytes): None | LQT-Fold Shortening ([7]; LQT3 cardiomyocytes): None | LQT-Shortening Dose ([7]; LQT3 cardiomyocytes): None | LQT-Cessation Dose ([7]; human, 5 min): 200 µM | IC50 [9]: 5.1 µM | IC50 ([9]; Example 2): 5.1 µM | behavioral/toxic effects at 200 mg/kg (Male BALBc mice): slight lethargy | tolerability (Male BALBc mice): well-tolerated | DNaP/Kr [10]: 7.5 | WT-Fold Prolongation ([11]; normal hiPSC cardiomyocytes): None | Cessation of Beating ([11]; human, 5 min): 200 µM | WT-Prolongation Dose ([11]; normal hiPSC cardiomyocytes): None | solubility (in words) [12]: good solubility

Cl.[2H]C(N)(COc1ccccc1C(F)(F)F)c1ccccc1 (stereo not drawn) [Compound 104d]
LQT-EC50 (μM)-Shortening [7, 17]: shortens) | LQT-Fold Shortening [7, 17]: 1.395 | LQT-Shortening Dose [7, 17]: 22 µM | LQT-Cess. Dose [7]: 66 µM | Human CYP3A4 (nmol/incub) (CYP3A4): 0.3 nmol/incub | Human FMO1 (nmol/incub) (Human FMO1): 0.3 nmol/incub | WT-Prolong. Dose [11]: No AP | WT-Cess. Dose [11]: 22 µM | WT-EC50 (μM)-Prolong. [11]: No AP | Human FMO3 (nmol/incub) (Human FMO3): 0.7 nmol/incub

NC(COc1cc(C(F)(F)F)cc(C(F)(F)F)c1)c1ccccc1 (stereo not drawn) [drawing 305]
% Metabolism Human S9 [1]: 41.1 ± 28.9% | % Metabolism Rat S9 [2]: 2.1 ± 1.4% | % Metabolism Dog S9 [3]: 25.6 ± 17.9% | % Metabolism Mouse S9 [4]: 11.6 ± 3.0%

Cc1ccccc1OCC(N)c1ccccc1 (stereo not drawn) [drawing 307]
% Metabolism Human S9 [1]: 7.0 ± 0.1% | % Metabolism Rat S9 [2]: 97.8 ± 19.5% | % Metabolism Dog S9 [3]: 98.0 ± 28.1% | % Metabolism Mouse S9 [4]: 34.6%
